Laboratory results reported in US11866459B2, “Cocrystal of progesterone and preparation method and use thereof” (NATIONAL INSTITUTES FOR FOOD AND DRUG CONTROL, priority 2020, dated 2024).
Counter-ions that a name gives are not always drawn. Like-named read-outs stand apart in the source and are kept apart here.

How the values were obtained:
in vitro = details: PAMPA; for permeability level compared with metoprolol / permeation rate relative to the progesterone monomer: pH 6.8
Protocol: (§1) The present invention involves the following detection instruments: • Single-crystal X-ray diffractometer: Bruker P4, Mo target, \ω scan, 296.15K; • Fourier infrared spectrometer: PerkinElmer Frontier FT/IR Spectrometer, normal temperature, KBr pellets, wavelength of 4000 to 450 cm^−1; • Powder X-ray diffractometer: Rigaku D/max-25509 kw, CuKα radiation, graphite monochromator; • Differential scanning calorimetry analyzer: Mettler Toledo DSC 822e, heating rate of 10° C./min, nitrogen flow rate of 50 mL/min; • Dynamic vapour sorption analyzer: SMS DVS advantage, 25° C.; • Dissolution apparatus: Tianjin Tianda Tianfa Technology Co., Ltd. RC806D, stirring paddle method; • Drug permeation rate tester: Pion Inc μFlux™.
Since the pH of fasting intestinal fluid in a human body is 6.5 and the pH of blood is 7.4, in order to make the conditions under which the permeation rate was measured close to the environment of the human gastrointestinal tract, pH 6.8 phosphate buffer was selected as the medium in the experiment. 3 mg of progesterone monomers and cocrystals of progesterone equivalent to 3 mg of progesterone were accurately weighed, and respectively placed in a donor compartment that represents the gastrointestinal tract, and 20 ml of pH 6.8 phosphate buffer was accurately added. 20 ml of pH 7.4 ASB buffer was accurately added to a receptor compartment that represents blood. The two compartments were separated by a biomimetic membrane with an area of 1.54 cm^2. The biomimetic membrane was coated with 25 μl of simulated gastrointestinal liposomes for infiltration, which represents the cell membrane of the gastrointestinal tract. At the temperature of 37° C. and the stirring speed of 200 rpm, sampling was conducted for 4 h, with an interval of 60 s between each two sampling procedures. The drug concentration in the receptor compartment was measured with a fiber optic probe within the ultraviolet wavelength range of 250 to 350 nm. The artificial membrane permeation rate of the drug was calculated according to Formula 1 (J/Flux).
[formula] represents the rate of change of drug concentration in the receptor compartment per unit time (μg·mL^−1·min^−1); V is the volume of buffer in the receptor compartment (mL); A is the area of the biomimetic membrane (cm^2); and Ct is the initial concentration of the drug in the donor compartment (μg·mL^−1).
The level of drug permeability can be determined by comparing the permeability of the drug with that of metoprolol measured by the same method.

[1] = Determination of hygroscopicity by dynamic vapour sorption analysis; format: physicochemical; details: 25° C.
Protocol: The nitrogen flow rate was 200 ml/min, and the relative humidity, varied in a stepped manner by a change of 10%, increased from 20% to 80%, and then dropped to 0%.

[2] = Determination of the dissolution rate (dissolution curves, stirring paddle method, HPLC); details: for time at which the highest concentration was reached / highest value of concentration of progesterone on dissolution curve: 37±0.5° C.; for highest value of concentration of progesterone on dissolution curve: 50 to 100 rpm
Protocol: as §1
The two dissolution media are water and pH 1.2 hydrochloric acid solution, respectively. […] The content of progesterone at the wavelength of 241 nm was measured by the HPLC method, and the dissolution amount was calculated by the external standard method. Dissolution curves with time as the abscissa and the concentration of progesterone as the ordinate were respectively plotted, as shown in FIGS. 5 and 6.

[3] = test system: Female immature white rabbits; assay: Pharmacodynamic experiment of cocrystals of progesterone: rabbit body weight and uterine index; format: in vivo; details: for Uterine index (weight of uterus / weight of rabbit): x ± s
Protocol: Female immature white rabbits were used and randomly divided into blank group, positive control group, low dose group, medium dose group and high dose group, with 10 rabbits in each group. The dose of progesterone that should be given to each rabbit is twice the clinical human dose of progesterone, and is calculated according to the rabbit's body weight. […] The intramuscular injections were performed for a consecutive 30 days. Weighing was performed on day 1 and day 30 respectively. A part of the uterine tissue 2 cm from the junction of the uterus and vagina in the direction of the ovary was cut and weighed. The uterine index was calculated by dividing the weight of the uterus by the weight of each rabbit.

[4] = pH 1.2 hydrochloric acid solution

## COCCc1ccc(OCC(O)CNC(C)C)cc1 (stereo not shown) [metoprolol tartrate, reference compound]
In vitro
  Papp at 4 h, 150 µg/mL: 120 ×10⁻⁶ cm/s

## CC(=O)[C@H]1CC[C@H]2[C@@H]3CCC4=CC(=O)CC[C@]4(C)[C@H]3CC[C@]12C [progesterone, pregn-4-ene-3,20-dione]
[1]; dynamic vapour sorption
  hygroscopicity: non-hygroscopic
[1]; relative humidity 20% to 80% then to 0% in 10% steps
  change in relative mass (dynamic vapour sorption): less than 0.2%
[2]; [4]
  time at which the highest concentration was reached: 120 min
  highest value of concentration of progesterone on dissolution curve: 7.87 µg/mL
[2]; water
  time at which the highest concentration was reached: 120 min
  highest value of concentration of progesterone on dissolution curve: 7.84 µg/mL
In vitro
  Papp at 4 h, 150 µg/mL: 1110 ×10⁻⁶ cm/s
  permeability level compared with metoprolol: high permeability
In vitro; 4 h, 150 µg/mL
  permeation rate (J, Flux): 0.32 μg·min^−1·cm^−2

## CC(=O)[C@H]1CC[C@H]2[C@@H]3CCC4=CC(=O)CC[C@]4(C)[C@H]3CC[C@]12C.O=C(O)c1cccc([N+](=O)[O-])c1C(=O)O [progesterone-3-nitrophthalic acid cocrystal]
[2]
  solubility relative to the progesterone monomer: 1.3 times
[2]; pH 1.2
  solubility relative to the progesterone monomer: 1.3 times
[2]; [4]
  time at which the highest concentration was reached: 30 min
  highest value of concentration of progesterone on dissolution curve: 10.4 µg/mL
[2]; water
  time at which the highest concentration was reached: 90 min
  highest value of concentration of progesterone on dissolution curve: 9.90 µg/mL
In vitro
  effective permeability (Pe): 1460 ×10⁻⁶ cm/s
  permeation rate (J, Flux): 0.28 μg·min^−1·cm^−2
  permeability level compared with metoprolol: high permeability
  permeation rate relative to the progesterone monomer: 0.9 times

## CC(=O)[C@H]1CC[C@H]2[C@@H]3CCC4=CC(=O)CC[C@]4(C)[C@H]3CC[C@]12C.O=Cc1ccc(B(O)O)cc1 [progesterone-4-formylbenzeneboronic acid cocrystal]
[2]
  solubility relative to the progesterone monomer: 1.2 times
[2]; pH 1.2
  solubility relative to the progesterone monomer: 1.1 times
[2]; [4]
  time at which the highest concentration was reached: 120 min
  highest value of concentration of progesterone on dissolution curve: 8.77 µg/mL
[2]; water
  time at which the highest concentration was reached: 60 min
  highest value of concentration of progesterone on dissolution curve: 9.06 µg/mL
In vitro
  effective permeability (Pe): 887 ×10⁻⁶ cm/s
  permeation rate (J, Flux): 0.62 μg·min^−1·cm^−2
  permeability level compared with metoprolol: high permeability
  permeation rate relative to the progesterone monomer: 1.9 times

## progesterone-isophthalic acid cocrystal
[3]; 3.5 mg·kg^−1 intramuscular for 30 consecutive days, low dose group
  Uterine index (weight of uterus / weight of rabbit): 0.025 ± 0.009%
[3]; 7 mg·kg^−1 intramuscular for 30 consecutive days, medium dose group
  Uterine index (weight of uterus / weight of rabbit): 0.029 ± 0.009 %
[3]; 14 mg·kg^−1 intramuscular for 30 consecutive days (high dose group / positive control group)
  Uterine index (weight of uterus / weight of rabbit): 0.035 ± 0.008%
[3]; 3.5, 7 and 14 mg·kg^−1 intramuscular, 30 days
  change of uterine index of rabbits as the dose increased: increasing trend
[3]; high dose group, 14 mg·kg^−1
  statistical difference in uterine index versus positive control group: no significant difference
[3]; low dose group, 3.5 mg·kg^−1
  statistical difference in uterine index versus positive control group: significant differences
[3]; medium dose group, 7 mg·kg^−1
  statistical difference in uterine index versus positive control group: no significant difference
